Laboratory results taken from ChEMBL document CHEMBL4428052, “Substrate-Guided Design of Selective FXIIa Inhibitors Based on the Plant-Derived Momordica cochinchinensis Trypsin Inhibitor-II (MCoTI-II) Scaffold” (J Med Chem, 2016).
pKi: −log10 of the molar value. Peptide text beside a SMILES is read from it.

Columns and labels:
Coagulation factor XI = Coagulation factor XI (Homo sapiens, UniProt P03951); experiment: Inhibition of factor 11a (unknown origin) using Bz-FVRpNA as substrate incubated for 30 mins measured for 7 mins by morrison plot analysis
Plasma kallikrein = Plasma kallikrein (Homo sapiens, UniProt P03952); experiment: Inhibition of human plasma kallikrein using Ac-RM(O2)YRpNA as substrate incubated for 30 mins measured for 7 mins by morrison plot analysis
[1] = biological target: Tissue-type plasminogen activator (Homo sapiens, UniProt P00750); experiment: Inhibition of tPA (unknown origin) incubated for 30 mins measured for 7 mins by morrison plot analysis
Coagulation factor XII = biological target: T1, Coagulation factor XII (Homo sapiens, UniProt P00748); experiment: Inhibition of factor 12a (unknown origin) using Ac-QRFRpNA as substrate incubated for 30 mins measured for 7 mins by morrison plot analysis
T1 sequence (P00748 whole entry): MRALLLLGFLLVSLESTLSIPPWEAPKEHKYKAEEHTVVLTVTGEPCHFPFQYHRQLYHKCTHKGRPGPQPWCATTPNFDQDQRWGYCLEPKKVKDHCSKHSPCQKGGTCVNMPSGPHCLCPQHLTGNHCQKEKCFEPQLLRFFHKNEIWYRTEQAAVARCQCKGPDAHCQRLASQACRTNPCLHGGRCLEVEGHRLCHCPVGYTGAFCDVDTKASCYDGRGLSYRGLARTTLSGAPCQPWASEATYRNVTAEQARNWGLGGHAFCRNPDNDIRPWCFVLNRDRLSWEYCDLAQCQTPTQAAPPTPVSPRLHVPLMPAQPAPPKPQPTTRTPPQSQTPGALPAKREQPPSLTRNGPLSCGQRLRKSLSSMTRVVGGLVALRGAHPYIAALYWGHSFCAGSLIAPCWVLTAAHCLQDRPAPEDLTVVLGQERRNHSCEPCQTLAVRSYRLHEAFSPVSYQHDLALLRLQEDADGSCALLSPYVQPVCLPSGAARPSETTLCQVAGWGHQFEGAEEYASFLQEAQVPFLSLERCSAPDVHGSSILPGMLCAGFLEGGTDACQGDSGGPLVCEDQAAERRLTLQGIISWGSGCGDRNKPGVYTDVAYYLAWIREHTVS

Coagulation factor IX = Coagulation factor IX (Homo sapiens, UniProt P00740); experiment: Inhibition of factor 9a (unknown origin) using Ac-QGRpNA as substrate incubated for 30 mins measured for 7 mins by morrison plot analysis
Trypsin = Trypsin (Homo sapiens, UniProt P07477+P07478+P35030); experiment: Inhibition of trypsin (unknown origin) using Bz-FVRpNA as substrate incubated for 30 mins measured for 7 mins by morrison plot analysis; assay type: protein assay
Plasminogen = Plasminogen (Homo sapiens, UniProt P00747); experiment: Inhibition of plasmin (unknown origin) using Ac-RM(O2)YRpNA as substrate incubated for 30 mins measured for 7 mins by morrison plot analysis
Prothrombin = Prothrombin (Homo sapiens, UniProt P00734); experiment: Inhibition of thrombin (unknown origin) using Ac-ATPRpNA as substrate incubated for 30 mins measured for 7 mins by morrison plot analysis
Coagulation factor X = Coagulation factor X (Homo sapiens, UniProt P00742); experiment: Inhibition of factor 10a (unknown origin) using Ac-QRSRpNA as substrate incubated for 30 mins measured for 7 mins by morrison plot analysis
[2] = biological target: Urokinase-type plasminogen activator (Homo sapiens, UniProt P00749); experiment: Inhibition of uPA (unknown origin) incubated for 30 mins measured for 7 mins by morrison plot analysis
Homo sapiens = organism: Homo sapiens; experiment: Selectivity ratio of Ki for factor 10a (unknown origin) to Ki for factor 12a (unknown origin)

Sequence of Plasma kallikrein (P03952 20-390 limits assumed): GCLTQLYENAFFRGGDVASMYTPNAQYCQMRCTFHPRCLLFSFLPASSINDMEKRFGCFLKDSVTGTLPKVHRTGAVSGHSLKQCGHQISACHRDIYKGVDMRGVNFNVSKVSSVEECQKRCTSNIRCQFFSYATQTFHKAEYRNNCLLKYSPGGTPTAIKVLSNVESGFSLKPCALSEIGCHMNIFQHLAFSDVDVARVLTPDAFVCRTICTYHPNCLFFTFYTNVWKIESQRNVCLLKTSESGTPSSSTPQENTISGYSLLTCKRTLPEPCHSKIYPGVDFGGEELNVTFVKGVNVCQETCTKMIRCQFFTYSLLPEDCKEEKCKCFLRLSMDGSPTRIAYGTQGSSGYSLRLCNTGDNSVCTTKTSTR
Sequence of Plasma kallikrein (P03952 391-638 limits assumed): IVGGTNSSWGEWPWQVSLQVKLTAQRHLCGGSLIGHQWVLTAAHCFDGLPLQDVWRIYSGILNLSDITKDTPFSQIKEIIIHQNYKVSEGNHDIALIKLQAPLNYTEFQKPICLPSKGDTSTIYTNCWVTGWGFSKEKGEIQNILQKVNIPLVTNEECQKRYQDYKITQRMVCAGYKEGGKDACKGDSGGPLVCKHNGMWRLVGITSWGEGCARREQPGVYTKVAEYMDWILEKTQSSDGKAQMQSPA
Sequence of Coagulation factor XI (P03951 19-387 limits assumed): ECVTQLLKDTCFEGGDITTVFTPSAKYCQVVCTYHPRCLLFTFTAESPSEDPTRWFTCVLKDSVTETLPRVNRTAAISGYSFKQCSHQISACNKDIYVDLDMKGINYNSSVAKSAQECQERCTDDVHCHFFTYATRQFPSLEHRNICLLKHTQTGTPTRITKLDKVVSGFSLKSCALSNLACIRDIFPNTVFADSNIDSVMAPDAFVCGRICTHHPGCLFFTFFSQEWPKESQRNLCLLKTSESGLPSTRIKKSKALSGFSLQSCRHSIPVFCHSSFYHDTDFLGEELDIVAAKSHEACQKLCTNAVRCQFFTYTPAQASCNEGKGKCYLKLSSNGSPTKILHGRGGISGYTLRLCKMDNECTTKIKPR
Sequence of Coagulation factor XI (P03951 388-625 limits assumed): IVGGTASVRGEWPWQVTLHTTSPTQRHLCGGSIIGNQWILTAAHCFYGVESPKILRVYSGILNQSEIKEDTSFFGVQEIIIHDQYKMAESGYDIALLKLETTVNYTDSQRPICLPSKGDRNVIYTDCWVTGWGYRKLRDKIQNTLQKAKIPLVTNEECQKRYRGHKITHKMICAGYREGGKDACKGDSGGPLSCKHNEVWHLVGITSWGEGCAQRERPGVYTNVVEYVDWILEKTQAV
Sequence of Tissue-type plasminogen activator (P00750 whole entry): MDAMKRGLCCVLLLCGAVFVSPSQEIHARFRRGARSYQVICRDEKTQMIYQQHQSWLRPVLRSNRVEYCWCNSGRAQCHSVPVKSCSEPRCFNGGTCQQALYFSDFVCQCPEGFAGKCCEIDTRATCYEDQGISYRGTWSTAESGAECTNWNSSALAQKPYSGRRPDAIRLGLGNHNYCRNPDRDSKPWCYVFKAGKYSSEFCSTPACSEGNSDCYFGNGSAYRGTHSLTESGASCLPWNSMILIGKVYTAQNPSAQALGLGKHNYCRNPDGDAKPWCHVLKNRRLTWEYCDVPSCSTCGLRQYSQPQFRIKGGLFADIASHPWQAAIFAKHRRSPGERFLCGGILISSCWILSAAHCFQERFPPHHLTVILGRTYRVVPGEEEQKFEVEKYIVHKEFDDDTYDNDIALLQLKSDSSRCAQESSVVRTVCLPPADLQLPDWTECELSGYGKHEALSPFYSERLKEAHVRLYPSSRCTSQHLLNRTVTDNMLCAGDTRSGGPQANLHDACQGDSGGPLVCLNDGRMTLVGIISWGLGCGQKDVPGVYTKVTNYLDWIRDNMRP
Sequence of Plasminogen (P00747 97-580 limits assumed): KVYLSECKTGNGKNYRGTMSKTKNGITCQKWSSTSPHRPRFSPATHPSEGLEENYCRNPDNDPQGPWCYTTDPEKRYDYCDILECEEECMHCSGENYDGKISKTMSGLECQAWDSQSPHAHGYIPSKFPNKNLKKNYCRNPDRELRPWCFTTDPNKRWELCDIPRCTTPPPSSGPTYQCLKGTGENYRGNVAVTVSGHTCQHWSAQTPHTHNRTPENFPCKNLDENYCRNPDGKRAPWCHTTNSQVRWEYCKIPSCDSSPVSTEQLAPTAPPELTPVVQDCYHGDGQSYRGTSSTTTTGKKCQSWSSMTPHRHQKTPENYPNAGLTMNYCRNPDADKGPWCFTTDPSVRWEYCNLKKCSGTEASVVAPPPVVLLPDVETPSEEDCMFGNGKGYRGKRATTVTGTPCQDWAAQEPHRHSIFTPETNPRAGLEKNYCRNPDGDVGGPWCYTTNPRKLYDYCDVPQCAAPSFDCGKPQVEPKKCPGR
Sequence of Plasminogen (P00747 581-810 limits assumed): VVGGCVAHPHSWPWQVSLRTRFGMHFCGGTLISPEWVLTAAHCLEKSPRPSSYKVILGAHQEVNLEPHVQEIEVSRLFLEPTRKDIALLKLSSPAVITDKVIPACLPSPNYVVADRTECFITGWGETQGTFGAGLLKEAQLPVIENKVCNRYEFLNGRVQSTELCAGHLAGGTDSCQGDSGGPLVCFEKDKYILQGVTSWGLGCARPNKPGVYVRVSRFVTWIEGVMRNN
Sequence of Coagulation factor IX (P00740 47-191 limits assumed): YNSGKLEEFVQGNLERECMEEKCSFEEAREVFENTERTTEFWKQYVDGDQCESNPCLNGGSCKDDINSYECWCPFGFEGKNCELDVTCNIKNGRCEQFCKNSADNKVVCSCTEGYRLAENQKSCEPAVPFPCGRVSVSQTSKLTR
Sequence of Coagulation factor IX (P00740 227-461 limits assumed): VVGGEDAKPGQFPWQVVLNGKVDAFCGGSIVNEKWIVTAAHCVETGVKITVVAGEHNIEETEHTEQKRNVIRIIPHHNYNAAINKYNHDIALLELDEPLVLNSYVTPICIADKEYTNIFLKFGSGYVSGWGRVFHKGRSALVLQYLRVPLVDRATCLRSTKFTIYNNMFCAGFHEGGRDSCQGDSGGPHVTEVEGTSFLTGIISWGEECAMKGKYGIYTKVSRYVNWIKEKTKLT
Sequence of Coagulation factor X (P00742 41-179 limits assumed): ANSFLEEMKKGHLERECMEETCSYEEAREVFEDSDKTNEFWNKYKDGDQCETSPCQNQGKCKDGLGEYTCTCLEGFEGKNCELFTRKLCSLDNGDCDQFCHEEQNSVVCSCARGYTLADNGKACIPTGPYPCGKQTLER
Sequence of Coagulation factor X (P00742 235-488 limits assumed): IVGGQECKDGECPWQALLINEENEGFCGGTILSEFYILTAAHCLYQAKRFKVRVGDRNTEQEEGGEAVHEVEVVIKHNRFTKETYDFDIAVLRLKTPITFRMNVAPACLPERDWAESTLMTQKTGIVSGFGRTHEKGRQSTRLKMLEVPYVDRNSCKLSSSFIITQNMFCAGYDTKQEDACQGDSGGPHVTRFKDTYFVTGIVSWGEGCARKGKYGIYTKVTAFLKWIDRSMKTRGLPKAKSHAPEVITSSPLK

| SMILES | pKi (Coagulation factor XI) | pKi (Plasma kallikrein) | pKi [1] | pKi (Coagulation factor XII) | pKi (Coagulation factor IX) | Ki (Trypsin) [µM] | pKi (Plasminogen) | pKi (Prothrombin) | pKi (Coagulation factor X) | pKi [2] | Ratio Ki (Homo sapiens) |
| --- | --- | --- | --- | --- | --- | --- | --- | --- | --- | --- | --- |
| CC[C@H](C)[C@@H]1NC(=O)[C@@H]2CSSC[C@H](NC(=O)[C@H](CCC(N)=O)NC(=O)CNC(=O)CN)C(=O)N[C@@H](Cc3ccccc3)C(=O)N[C@@H](CCCNC(=N)N)C(=O)N[C@@H]([C@@H](C)CC)C(=O)N[C@@H](Cc3c[nH]c4ccccc34)C(=O)N[C@@H](CCCCN)C(=O)N[C@@H](CCCCN)C(=O)N[C@H]3CSSC[C@H](NC1=O)C(=O)N[C@@H](CCCNC(=N)N)C(=O)NCC(=O)N[C@@H](CC(N)=O)C(=O)NCC(=O)N[C@@H](Cc1ccc(O)cc1)C(=O)N[C@H](C(=O)NCC(=O)N[C@@H](CO)C(=O)NCC(=O)N[C@@H](CO)C(=O)N[C@@H](CC(=O)O)C(=O)O)CSSC[C@H](NC(=O)[C@H](CC(=O)O)NC(=O)[C@H](CO)NC(=O)[C@H](CC(=O)O)NC(=O)[C@H](CCCNC(=N)N)NC(=O)[C@H](CCCNC(=N)N)NC3=O)C(=O)N1CCC[C@H]1C(=O)NCC(=O)N[C@@H](C)C(=O)N2 | < 5.00 | < 5.00 | < 5.00 | 6.29 | < 5.00 | 2.24 | 5.82 | – | – | – | – |
| CC[C@H](C)[C@@H]1NC(=O)[C@H](CCCNC(=N)N)NC(=O)[C@H](Cc2ccccc2)NC(=O)[C@H](NC(=O)[C@H](CCC(N)=O)NC(=O)CNC(=O)CN)CSSC[C@H]2NC(=O)[C@H](C)NC(=O)CNC(=O)[C@@H]3CCCN3C(=O)[C@@H]3CSSC[C@H](C(=O)NCC(=O)N[C@@H](CO)C(=O)NCC(=O)N[C@@H](CO)C(=O)N[C@@H](CC(=O)O)C(=O)O)NC(=O)[C@H](Cc4ccc(O)cc4)NC(=O)CNC(=O)[C@H](CC(N)=O)NC(=O)CNC(=O)[C@H](CCCNC(=N)N)NC(=O)[C@H](CSSC[C@H](NC(=O)[C@H](CCCCN)NC(=O)[C@H](CCCCN)NC(=O)[C@H](Cc4c[nH]c5ccccc45)NC1=O)C(=O)N[C@@H](CCCNC(=N)N)C(=O)N[C@@H](CCCNC(=N)N)C(=O)N[C@@H](CC(=O)O)C(=O)N[C@@H](CO)C(=O)N[C@@H](CC(=O)O)C(=O)N3)NC(=O)[C@H]([C@@H](C)CC)NC2=O | – | – | – | – | – | – | – | < 5.00 | < 4.00 | < 5.00 | – |
| CC[C@H](C)[C@@H]1NC(=O)[C@@H]2CSSC[C@H](NC(=O)[C@H](CCC(N)=O)NC(=O)CNC(=O)[C@@H](N)CCCCN)C(=O)N[C@@H](Cc3ccccc3)C(=O)N[C@@H](CCCNC(=N)N)C(=O)N[C@@H]([C@@H](C)CC)C(=O)N[C@@H](Cc3c[nH]c4ccccc34)C(=O)N[C@@H](CCCCN)C(=O)N[C@@H](CCCCN)C(=O)N[C@H]3CSSC[C@H](NC1=O)C(=O)N[C@@H](CCCNC(=N)N)C(=O)NCC(=O)N[C@@H](CC(N)=O)C(=O)NCC(=O)N[C@@H](Cc1ccc(O)cc1)C(=O)N[C@H](C(=O)NCC(=O)N[C@@H](CO)C(=O)NCC(=O)N[C@@H](CO)C(=O)N[C@@H](CC(=O)O)C(=O)O)CSSC[C@H](NC(=O)[C@H](CC(=O)O)NC(=O)[C@H](CO)NC(=O)[C@H](CC(=O)O)NC(=O)[C@H](CCCNC(=N)N)NC(=O)[C@H](CCCNC(=N)N)NC3=O)C(=O)N1CCC[C@H]1C(=O)NCC(=O)N[C@@H](C)C(=O)N2 | < 4.00 | < 4.30 | < 4.30 | 6.31 | < 4.30 | 6.24 | 5.34 | – | – | – | – |
| CC[C@H](C)[C@@H]1NC(=O)[C@H](CCCCN)NC(=O)[C@@H]2CCCN2C(=O)[C@H](NC(=O)[C@@H](NC(=O)CNC(=O)CN)C(C)C)CSSC[C@H]2NC(=O)[C@H](C)NC(=O)CNC(=O)[C@@H]3CCCN3C(=O)[C@@H]3CSSC[C@H](C(=O)NCC(=O)N[C@@H](CO)C(=O)NCC(=O)N[C@@H](CO)C(=O)N[C@@H](CC(=O)O)C(=O)O)NC(=O)[C@H](Cc4ccc(O)cc4)NC(=O)CNC(=O)[C@H](CC(N)=O)NC(=O)CNC(=O)[C@H](CCCNC(=N)N)NC(=O)[C@H](CSSC[C@H](NC(=O)[C@H](CCCCN)NC(=O)[C@H](CCCCN)NC(=O)[C@H](CC(C)C)NC1=O)C(=O)N[C@@H](CCCNC(=N)N)C(=O)N[C@@H](CCCNC(=N)N)C(=O)N[C@@H](CC(=O)O)C(=O)N[C@@H](CO)C(=O)N[C@@H](CC(=O)O)C(=O)N3)NC(=O)[C@H]([C@@H](C)CC)NC2=O | – | – | – | – | – | – | – | < 5.00 | < 5.00 | < 5.00 | – |
| CC[C@H](C)[C@@H]1NC(=O)[C@H](CCCNC(=N)N)NC(=O)[C@H](CO)NC(=O)[C@H](NC(=O)[C@H](CCC(N)=O)NC(=O)CNC(=O)CN)CSSC[C@H]2NC(=O)[C@H](C)NC(=O)CNC(=O)[C@@H]3CCCN3C(=O)[C@@H]3CSSC[C@H](C(=O)NCC(=O)N[C@@H](CO)C(=O)NCC(=O)N[C@@H](CO)C(=O)N[C@@H](CC(=O)O)C(=O)O)NC(=O)[C@H](Cc4ccc(O)cc4)NC(=O)CNC(=O)[C@H](CC(N)=O)NC(=O)CNC(=O)[C@H](CCCNC(=N)N)NC(=O)[C@H](CSSC[C@H](NC(=O)[C@H](CCCCN)NC(=O)[C@H](CCCCN)NC(=O)[C@H](CC(C)C)NC1=O)C(=O)N[C@@H](CCCNC(=N)N)C(=O)N[C@@H](CCCNC(=N)N)C(=O)N[C@@H](CC(=O)O)C(=O)N[C@@H](CO)C(=O)N[C@@H](CC(=O)O)C(=O)N3)NC(=O)[C@H]([C@@H](C)CC)NC2=O | – | – | – | – | – | – | – | < 5.00 | 4.02 | < 5.00 | – |
| CC[C@H](C)[C@@H]1NC(=O)[C@@H]2CSSC[C@H](NC(=O)[C@H](CCC(N)=O)NC(=O)CNC(=O)CN)C(=O)N[C@@H](CO)C(=O)N[C@@H](CCCNC(=N)N)C(=O)N[C@@H]([C@@H](C)CC)C(=O)N[C@@H](CC(C)C)C(=O)N[C@@H](CCCCN)C(=O)N[C@@H](CCCCN)C(=O)N[C@H]3CSSC[C@H](NC1=O)C(=O)N[C@@H](CCCNC(=N)N)C(=O)NCC(=O)N[C@@H](CC(N)=O)C(=O)NCC(=O)N[C@@H](Cc1ccc(O)cc1)C(=O)N[C@H](C(=O)NCC(=O)N[C@@H](CO)C(=O)NCC(=O)N[C@@H](CO)C(=O)N[C@@H](CC(=O)O)C(=O)O)CSSC[C@H](NC(=O)[C@H](CC(=O)O)NC(=O)[C@H](CO)NC(=O)[C@H](CC(=O)O)NC(=O)[C@H](CCCNC(=N)N)NC(=O)[C@H](CCCNC(=N)N)NC3=O)C(=O)N1CCC[C@H]1C(=O)NCC(=O)N[C@@H](C)C(=O)N2 | < 5.00 | < 5.00 | < 5.00 | 5.67 | < 5.00 | > 10 | < 5.00 | – | – | – | – |
| CC[C@H](C)[C@@H]1NC(=O)[C@@H]2CSSC[C@H](NC(=O)[C@H](CCC(N)=O)NC(=O)CNC(=O)CN)C(=O)N[C@@H](Cc3ccccc3)C(=O)N[C@@H](CCCNC(=N)N)C(=O)N[C@@H]([C@@H](C)CC)C(=O)N[C@@H](CC(C)C)C(=O)N[C@@H](CCCCN)C(=O)N[C@@H](CCCCN)C(=O)N[C@H]3CSSC[C@H](NC1=O)C(=O)N[C@@H](CCCNC(=N)N)C(=O)NCC(=O)N[C@@H](CC(N)=O)C(=O)NCC(=O)N[C@@H](Cc1ccc(O)cc1)C(=O)N[C@H](C(=O)NCC(=O)N[C@@H](CO)C(=O)NCC(=O)N[C@@H](CO)C(=O)N[C@@H](CC(=O)O)C(=O)O)CSSC[C@H](NC(=O)[C@H](CC(=O)O)NC(=O)[C@H](CO)NC(=O)[C@H](CC(=O)O)NC(=O)[C@H](CCCNC(=N)N)NC(=O)[C@H](CCCNC(=N)N)NC3=O)C(=O)N1CCC[C@H]1C(=O)NCC(=O)N[C@@H](C)C(=O)N2 | < 5.00 | < 5.00 | < 5.00 | 6.96 | < 5.00 | 0.0069 | 6.57 | – | – | – | – |
| CC(=O)N[C@@H](CCC(N)=O)C(=O)N[C@@H](CCCNC(=N)N)C(=O)N[C@@H](Cc1ccccc1)C(=O)N[C@H](C=O)CCCNC(=N)N (Ac-QRFR-aldehyde) | – | – | – | 6.74 | – | – | – | – | 6.24 | – | 3 |
| CC[C@H](C)[C@@H]1NC(=O)[C@@H]2CSSC[C@H](NC(=O)[C@@H](NC(=O)CNC(=O)CN)C(C)C)C(=O)N3CCC[C@H]3C(=O)N[C@@H](CCCCN)C(=O)N[C@@H]([C@@H](C)CC)C(=O)N[C@@H](CC(C)C)C(=O)N[C@@H](CCCCN)C(=O)N[C@@H](CCCCN)C(=O)N[C@H]3CSSC[C@H](NC1=O)C(=O)N[C@@H](CCCNC(=N)N)C(=O)NCC(=O)N[C@@H](CC(N)=O)C(=O)NCC(=O)N[C@@H](Cc1ccc(O)cc1)C(=O)N[C@H](C(=O)NCC(=O)N[C@@H](CO)C(=O)NCC(=O)N[C@@H](CO)C(=O)N[C@@H](CC(=O)O)C(=O)O)CSSC[C@H](NC(=O)[C@H](CC(=O)O)NC(=O)[C@H](CO)NC(=O)[C@H](CC(=O)O)NC(=O)[C@H](CCCNC(=N)N)NC(=O)[C@H](CCCNC(=N)N)NC3=O)C(=O)N1CCC[C@H]1C(=O)NCC(=O)N[C@@H](C)C(=O)N2 | < 5.00 | < 5.00 | < 5.00 | 6.12 | < 5.00 | 0.00016 | 7.55 | – | – | – | – |
